Measured values from US8580809B2, “Filamin A-binding anti-inflammatory analgesic” (Pain Therapeutics, Inc., priority 2009, dated 2013).

Target: T1, mu opiate receptor (MOR) (Rattus norvegicus, UniProt P33535)
T1 construct: from tissue; host or cells: rat striatal membrane preparation
Experiment: MOR agonist activity using [35S]GTPγS binding assay in striatal membranes
Type: biochemical
Conditions: for MOR agonist activity, [35S]GTPγS binding to Gαo, FLNA-binding compound as agonist 0.1 μM: 0.1 μM compound; for MOR agonist activity, [35S]GTPγS binding to Gαo, FLNA-binding compound as agonist 0.1 μM / MOR agonist activity, [35S]GTPγS binding to Gαo, FLNA-binding compound as agonist 1 μM: striatal membranes; for MOR agonist activity, [35S]GTPγS binding to Gαo, 1 μM + BFNA: 1 μM compound + 1 μM β-funaltrexamine; for MOR agonist activity, [35S]GTPγS binding to Gαo, FLNA-binding compound as agonist 1 μM: 1 μM compound
Method: To assess the mu opiate receptor (MOR) agonist activity of positive compounds from the FLNA screening, compounds were tested in a [^35S]GTPγS binding assay using striatal membranes.
Striatal tissue was homogenized in 10 volumes of ice cold 25 mM HEPES buffer, pH 7.4, which contained 1 mM EGTA, 100 mM sucrose, 50 μg/ml leupeptin, 0.04 mM PMSF, 2 μg/ml soybean trypsin inhibitor and 0.2% 2-mercaptoethanol. The homogenates were centrifuged at 800×g for 5 minutes and the supernatants were centrifuged at 49,000×g for 20 minutes.
The resultant striatal membrane preparation (200 μg) was admixed and maintained (incubated) at 30° C. for 5 minutes in reaction buffer as above that additionally contained 1 mM MgCl2 and 0.5 nM [^35S]GTPγS (0.1 μCi/assay, PerkinElmer Life and Analytical Sciences) in a total volume of 250 μl and continued for 5 minutes in the absence or presence of 0.1-10 μM of an assayed compound of interest. The reaction was terminated by dilution with 750 μl of ice-cold reaction buffer that contained 20 mM MgCl2 and 1 mM EGTA and immediate centrifugation at 16,000×g for 5 minutes.
The resulting pellet was solubilized by sonicating for 10 seconds in 0.5 ml of immunoprecipitation buffer containing 0.5% digitonin, 0.2% sodium cholate and 0.5% NP-40. Normal rabbit serum (1 μl) was added to 1 ml of lysate and incubated at 25° C. for 30 minutes. Nonspecific immune complexes were removed by incubation with 25 μl of protein A/G-conjugated agarose beads at 25° C. for 30 minutes followed by centrifugation at 5,000×g at 4° C. for 5 minutes. The supernatant was divided and separately incubated at 25° C. for 30 minutes with antibodies raised against Gαo proteins (1:1,000 dilutions).
The immunocomplexes so formed were collected by incubation at 25° C. for 30 minutes with 40 μl of agarose-conjugated protein A/G beads and centrifugation at 5,000×g at 4° C. for 5 minutes. The pellet was washed and suspended in buffer containing 50 mM Tris-HCl, pH 8.0, and 1% NP-40. The radioactivity in the suspension was determined by liquid scintillation spectrometry. […] DAMGO (H-Tyr-D-Ala-Gly-N-MePhe-Gly-OH; 1 or 10 μM) was used as a positive control.

T1 sequence (P33535 whole entry): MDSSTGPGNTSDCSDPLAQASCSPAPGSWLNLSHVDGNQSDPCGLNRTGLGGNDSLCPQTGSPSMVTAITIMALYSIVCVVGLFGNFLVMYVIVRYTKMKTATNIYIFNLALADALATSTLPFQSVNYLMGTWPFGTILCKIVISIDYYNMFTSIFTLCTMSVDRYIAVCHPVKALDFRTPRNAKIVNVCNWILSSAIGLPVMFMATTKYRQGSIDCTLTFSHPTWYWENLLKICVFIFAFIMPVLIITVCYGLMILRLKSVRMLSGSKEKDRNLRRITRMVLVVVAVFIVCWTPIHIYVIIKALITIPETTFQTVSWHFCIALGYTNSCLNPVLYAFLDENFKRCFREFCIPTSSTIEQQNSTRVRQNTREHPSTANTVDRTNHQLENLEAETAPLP

| Compound | MOR agonist activity, [35S]GTPγS binding to Gαo, FLNA-binding compound as agonist 0.1 μM [%] | MOR agonist activity, [35S]GTPγS binding to Gαo, 1 μM + BFNA [%] | MOR agonist activity, [35S]GTPγS binding to Gαo, FLNA-binding compound as agonist 1 μM [%] |
| --- | --- | --- | --- |
| COc1ccc(S(=O)(=O)N2CCC3(CC2)OCCN3S(=O)(=O)c2ccc(OC)cc2)cc1 [Compound 7866] | 152.3 | 62.4 | 308.2 |
| Cc1ccc(S(=O)(=O)N2CCC3(CC2)OCCN3S(=O)(=O)c2ccc(C)cc2)cc1 [Compound C0001] | 129.3 | 33.9 | 184.3 |
| COc1cccc(S(=O)(=O)N2CCC3(CC2)OCCN3S(=O)(=O)c2cccc(OC)c2)c1 [Compound C0002] | 88.4 | 3.9 | 93.8 |
| COc1ccccc1S(=O)(=O)N1CCC2(CC1)OCCN2S(=O)(=O)c1ccccc1OC [Compound C0003] | 162.3 | 107.7 | 215.9 |
| N#Cc1ccccc1S(=O)(=O)N1CCC2(CC1)OCCN2S(=O)(=O)c1ccccc1C#N [Compound C0004] | 122.0 | 65.8 | 228.4 |
| O=S(=O)(c1cccc(OC(F)(F)F)c1)N1CCC2(CC1)OCCN2S(=O)(=O)c1cccc(OC(F)(F)F)c1 [Compound C0005] | 180.4 | 166.4 | 227.2 |
| O=S(=O)(c1ccc(OC(F)(F)F)cc1)N1CCC2(CC1)OCCN2S(=O)(=O)c1ccc(OC(F)(F)F)cc1 [Compound C0006] | 121.5 | 4.6 | 204.0 |
| CC(C)c1ccc(S(=O)(=O)N2CCC3(CC2)OCCN3S(=O)(=O)c2ccc(C(C)C)cc2)cc1 [Compound C0007] | 79.1 | 10.9 | 195.0 |
| N#Cc1ccc(S(=O)(=O)N2CCC3(CC2)OCCN3S(=O)(=O)c2ccc(C#N)cc2)cc1 [Compound C0008] | 71.2 | 2.8 | 201.6 |
| O=S(=O)(c1ccc(-c2ccccc2)cc1)N1CCC2(CC1)OCCN2S(=O)(=O)c1ccc(-c2ccccc2)cc1 [Compound C0010] | 136.5 | 89.1 | 307.0 |
| O=S(=O)(c1ccc(C(F)(F)F)cc1)N1CCC2(CC1)OCCN2S(=O)(=O)c1ccc(C(F)(F)F)cc1 [Compound C0012] | 96.8 | 184.4 | 224.8 |
| CC(=O)Nc1ccc(S(=O)(=O)N2CCC3(CC2)OCCN3S(=O)(=O)c2ccc(NC(C)=O)cc2)cc1 [Compound C0013] | 156.6 | 39.6 | 301.2 |
| Cc1cccc(S(=O)(=O)N2CCC3(CC2)OCCN3S(=O)(=O)c2cccc(C)c2)c1 [Compound C0014] | 144.9 | 76.3 | 153.5 |
| Cc1ccccc1S(=O)(=O)N1CCC2(CC1)OCCN2S(=O)(=O)c1ccccc1C [Compound C0015] | 138.7 | 126.8 | 204.7 |
| O=S(=O)(c1ccccc1)N1CCC2(CC1)OCCN2S(=O)(=O)c1ccccc1 [Compound C0016] | 172.7 | 96.7 | 230.5 |
| COc1ccc(C(=O)N2CCC3(CC2)OCCN3C(=O)c2ccc(OC)cc2)cc1 [Compound C0017] | 153.8 | 94.1 | 284.5 |
| COc1ccc(C(=O)N2CCC3(CC2)OCCN3S(=O)(=O)c2ccc(OC)cc2)cc1 [Compound C0018] | 195.5 | 106.5 | 247.7 |
| COc1ccc(C(=O)N2CCOC23CCN(S(=O)(=O)c2ccc(OC)cc2)CC3)cc1 [Compound C0019] | 104.4 | 52.8 | 176.6 |
| CNc1ccc(S(=O)(=O)N2CCC3(CC2)OCCN3S(=O)(=O)c2ccc(NC)cc2)cc1 [Compound C0024] | 178.4 | 59.3 | 229.6 |
| O=S(=O)(c1ccc(Br)cc1)N1CCC2(CC1)OCCN2S(=O)(=O)c1ccc(Br)cc1 [Compound C0025] | 235.7 | 80.2 | 320.7 |
| COC(=O)c1ccc(S(=O)(=O)N2CCC3(CC2)OCCN3S(=O)(=O)c2ccc(C(=O)OC)cc2)cc1 [Compound C0028] | 93.9 | 78.4 | 132.4 |
| O=S(=O)(c1ccc(F)cc1)N1CCC2(CC1)OCCN2S(=O)(=O)c1ccc(F)cc1 [Compound C0029] | 175.4 | 16.6 | 308.8 |
| CCCCc1ccc(S(=O)(=O)N2CCC3(CC2)OCCN3S(=O)(=O)c2ccc(CCCC)cc2)cc1 [Compound C0030] | 150.3 | 95.0 | 226.8 |
| O=C(c1ccc([N+](=O)[O-])cc1)N1CCC2(CC1)OCCN2C(=O)c1ccc([N+](=O)[O-])cc1 [Compound C0032] | 145.4 | 80.9 | 202.0 |
| NS(=O)(=O)c1ccc(S(=O)(=O)N2CCC3(CC2)OCCN3S(=O)(=O)c2ccc(S(N)(=O)=O)cc2)cc1 [Compound C0034] | 103.6 | 80.1 | 167.9 |
| COc1ccc(NC(=O)N2CCC3(CC2)OCCN3S(=O)(=O)c2ccc(OC)cc2)cc1 [Compound C0041] | 186.1 | 95.5 | 244.4 |
| O=C(OCc1ccccc1)c1ccc(S(=O)(=O)N2CCC3(CC2)OCCN3S(=O)(=O)c2ccc(C(=O)OCc3ccccc3)cc2)cc1 [Compound C0042] | 167.1 | 110.6 | 260.9 |
| COc1ccc(S(=O)(=O)N2CCC3(CC2)OCCN3S(=O)(=O)c2ccc(C(C)=O)cc2)cc1 [Compound C0048] | 209.1 | 89.9 | 245.3 |
